{"source": "patent US6551555B2", "about": "“Apparatus with a chemical indicator for indicating exposure to an oxidative sterilant or disinfectant” (Ethicon, Inc., priority 1997, dated 2003)", "origin": "cited, not measured here", "details": "Sigma-Aldrich catalog number 229288", "data": [{"compound": "CN(C)c1ccc(C(=C2C=CC(=[N+](C)C)C=C2)c2ccc(N(C)C)cc2)cc1", "note": "[crystal violet]", "values": [{"measurement": "toxicity hazards", "result": "toxic and may cause cancer, heritable genetic damage and irritate the eyes, respiratory system and skin"}]}]}
